Assay results from US8952177B2 (Janssen Pharmaceutica NV, priority 2013, dated 2015).
Structures can show the parent of a compound that is named as a salt.

Tested on: leukotriene pathway in human whole blood (LTB4)
Assay: Human whole blood assay (LTB4 after calcium ionophore A23187 stimulation)
Type: cell-based
Conditions: human whole blood diluted 1:1 in RPMI, 15 min pre-incubation, A23187 7 μg/mL for 30 min at 37° Celsius
Experimental: The ability of the compounds of the present invention to treat a FLAP-mediated disease and/or disorder, or associated symptoms or complications thereof, was determined using the following procedures. Binding assay data represent the average value obtained from two different assay plates, with samples run in duplicate on each plate. Human whole blood assay data represent a single replicate on an assay plate using whole blood from at least one healthy donor.
An in vitro cellular assay was performed using human whole blood collected in heparin-containing tubes, which was used to test the ability of compounds to modulate the leukotriene pathway in human whole blood. The blood was diluted 1:1 in RPMI medium, pre-incubated for 15 min at 37° Celsius with test compounds at various concentrations, and then stimulated with calcium ionophore, A23187 (7 μg/mL), for 30 min at 37° Celsius. The samples were then centrifuged and plasma was removed. The plasma was diluted in assay buffer and LTB4 levels were measured using a commercial kit (Enzo Life Sciences). The concentration of each compound that was required for half-maximal inhibition (modulation) of […] (IC50) was calculated by a 4-parameter equation using the program GraphPad Prism (GraphPad software). For analysis, data are imported into 3DX and aggregated as the average of duplicates of the calculated ratios in order to calculate Ki and IC50 values. Numbers in parentheses are the number of runs for the assay.

Compound	IC50 (Homo sapiens) [nM]	IC50 (TFA salt) [nM]
Cc1ccc(COc2ccc3nc([C@H]4CCCC[C@@H]4C(=O)O)n(Cc4ccc(OC(F)(F)F)cc4F)c3c2)nc1 (racemic) [Example 21, racemic trans-2-{1-[2-Fluoro-4-(trifluoromethoxy)benzyl]-6-[(5-methylpyridin-2-yl)methoxy]-1H-benzimidazol-2-yl}cyclohexanecarboxylic acid]	740	–
Cn1ccc(COc2ccc3nc([C@@H]4CCCC[C@@H]4C(=O)O)n(Cc4ccc(OC(F)(F)F)c(F)c4)c3c2)n1 (racemic) [Example 55, racemic cis-2-{1-[3-Fluoro-4-(trifluoromethoxy)benzyl]-6-[(1-methyl-1H-pyrazol-3-yl)methoxy]-1H-benzimidazol-2-yl}cyclohexanecarboxylic acid]	3330	–
Cn1ccc(COc2ccc3nc(CC4(C(=O)O)CCCC4)n(Cc4ccc(Br)cc4)c3c2)n1 [Example 46, 1-({1-(4-Bromobenzyl)-6-[(1-methyl-1H-pyrazol-3-yl)methoxy]-1H-benzimidazol-2-yl}methyl)cyclopentanecarboxylic acid as the TFA salt]	6190	–
CCC(CC)(Cc1nc2ccc(OCc3ccn(C)n3)cc2n1Cc1ccc(Br)cc1F)C(=O)O [Example 58, 2-({1-(4-Bromo-2-fluorobenzyl)-6-[(1-methyl-1H-pyrazol-3-yl)methoxy]-1H-benzimidazol-2-yl}methyl)-2-ethylbutanoic acid]	1360	–
CCC(CC)(Cc1nc2ccc(OCc3ccn(C)n3)cc2n1Cc1ccc(Br)cc1)C(=O)O [Example 42, 2-({1-(4-Bromobenzyl)-6-[(1-methyl-1H-pyrazol-3-yl)methoxy]-1H-benzimidazol-2-yl}methyl)-2-ethylbutanoic acid as the TFA salt]	1030	–
Cc1cnc(COc2ccc3nc([C@@H]4CCCC[C@@H]4C(=O)O)n(Cc4c(F)cc(N5CCC(F)CC5)cc4F)c3c2)c(F)c1 (racemic) [Example 172, racemic cis-2-{1-[2,6-Difluoro-4-(4-fluoropiperidin-1-yl)benzyl]-6-[(3-fluoro-5-methylpyridin-2-yl)methoxy]-1H-benzimidazol-2-yl}cyclohexanecarboxylic acid]	90	–
CCC(CC)(Cc1nc2ccc(OCc3ccc(C)cn3)cc2n1Cc1ccc(N2CCC(F)(F)CC2)cc1)C(=O)O [Example 170, 2-({1-[4-(4,4-Difluoropiperidin-1-yl)benzyl]-6-[(5-methylpyridin-2-yl)methoxy]-1H-benzimidazol-2-yl}methyl)-2-ethylbutanoic acid]	2750	–
Cc1ccc(COc2ccc3nc([C@H]4CCCC[C@H]4C(=O)O)n(Cc4ccc(N5CCC(F)(F)C5)cc4F)c3c2)nc1 (stereo in doubt) [Example 163, (1R*,2S*)-2-{1-[4-(3,3-Difluoropyrrolidin-1-yl)-2-fluorobenzyl]-6-[5-methylpyridin-2-yl)methoxy]-1H-benzimidazol-2-yl}cyclohexanecarboxylic acid]	51	–
Cc1cnc(COc2ccc3nc([C@@H]4CCCC[C@@H]4C(=O)O)n(Cc4ccc(N5CCCCC5)cc4)c3c2)c(F)c1 (racemic) [Example 179, racemic cis-2-{6-[(3-Fluoro-5-methylpyridin-2-yl)methoxy]-1-(4-piperidin-1-ylbenzyl)-1H-benzimidazol-2-yl}cyclohexanecarboxylic acid]	150	–
Cc1ccc(COc2ccc3nc([C@@H]4CCCC[C@@H]4C(=O)O)n(Cc4ccc(N5CC(F)(F)C5)cc4F)c3c2)nc1 (stereo in doubt) [Example 167, (1S*,2R*)-2-{1-[4-(3,3-Difluoroazetidin-1-yl)-2-fluorobenzyl]-6-[(5-methylpyridin-2-yl)methoxy]-1H-benzimidazol-2-yl}cyclohexanecarboxylic acid]	71	–

Now from value to molecule:

IC50 (Homo sapiens) [nM]	IC50 (TFA salt) [nM]	Compound
1190	–	Cc1ccc(COc2ccc3nc(C4CCCC[C@@H]4C(=O)O)n(Cc4ccc(Br)cc4F)c3c2)nc1 (mixture of isomers) [Example 13, racemic trans-2-{1-(4-Bromo-2-fluorobenzyl)-6-[(5-methylpyridin-2-yl)methoxy]-1H-benzimidazol-2-yl}cyclohexanecarboxylic acid]
300	–	Cc1cnc(COc2ccc3nc([C@@H]4CCCC[C@@H]4C(=O)O)n(Cc4ccc(Br)cc4)c3c2)c(F)c1 (racemic) [Example 125, racemic cis-2-{1-(4-Bromobenzyl)-6-[(3-fluoro-5-methylpyridin-2-yl)methoxy]-1H-benzimidazol-2-yl}cyclohexanecarboxylic acid]
–	1390	Cc1ccc(COc2ccc3nc(C4CCCC[C@@H]4C(=O)O)n(Cc4ccc(Br)cc4)c3c2)nc1 (mixture of isomers) [Example 5, racemic trans-2-{1-(4-Bromobenzyl)-6-[(5-methylpyridin-2-yl)methoxy]-1H-benzimidazol-2-yl}cyclohexanecarboxylic acid as the TFA salt]
220	–	Cc1ccc(COc2ccc3nc([C@@H]4CCCC[C@@H]4C(=O)O)n(Cc4ccc(Br)cc4)c3c2)nc1 (single isomer, unassigned) [Example 2]
59	–	Cc1ccc(COc2ccc3nc([C@@H]4CCCC[C@@H]4C(=O)O)n(Cc4ccc(Br)cc4F)c3c2)nc1 (stereo in doubt) [Example 11, (1R*,2S*)-2-{1-(4-Bromo-2-fluorobenzyl)-6-[(5-methylpyridin-2-yl)methoxy]-1H-benzimidazol-2-yl}cyclohexanecarboxylic acid]
1080	–	Cc1ccc(COc2cc(F)c3nc(C4CCCC[C@@H]4C(=O)O)n(Cc4ccc(OC(F)(F)F)cc4)c3c2)nc1 (mixture of isomers) [Example 67, racemic trans-2-{4-Fluoro-6-[(5-methylpyridin-2-yl)methoxy]-1-[4-(trifluoromethoxy)benzyl]-1H-benzimidazol-2-yl}cyclohexanecarboxylic acid as the TFA salt]
> 30000	–	Cc1ccc(COc2ccc3nc([C@H]4CCCC[C@H]4C(=O)O)n(Cc4ccc(Br)cc4)c3c2)nc1 (single isomer, unassigned) [Example 3]
2110	–	Cc1ccc(COc2cc(F)c3nc(C4[C@H](C(=O)O)C4(C)C)n(Cc4ccc(OC(F)(F)F)cc4)c3c2)nc1 (mixture of isomers) [Example 74, racemic cis-3-{4-Fluoro-6-[(5-methylpyridin-2-yl)methoxy]-1-[4-(trifluoromethoxy)benzyl]-1H-benzimidazol-2-yl}-2,2-dimethylcyclopropanecarboxylic acid as the TFA salt]
1030	–	Cc1ccc(COc2ccc3nc([C@@H]4CCCC[C@@H]4C(=O)O)n(Cc4ccc(OC(F)(F)F)cc4Br)c3c2)nc1 (racemic) [Example 102, racemic cis-2-{1-[2-Bromo-4-(trifluoromethoxy)benzyl]-6-[(5-methylpyridin-2-yl)methoxy]-1H-benzimidazol-2-yl}cyclohexanecarboxylic acid as the HCl salt]
970	–	Cc1ccc(COc2cc(F)c3nc([C@H]4CCCC[C@@H]4C(=O)O)n(Cc4ccc(Br)cc4)c3c2)nc1 (racemic) [Example 62, racemic trans-2-{1-(4-Bromobenzyl)-4-fluoro-6-[(5-methylpyridin-2-yl)methoxy]-1H-benzimidazol-2-yl}cyclohexanecarboxylic acid]
~14000	–	Cc1ccc(COc2ccc3nc(CC4(C(=O)O)CCCC4)n(Cc4ccc(Br)cc4)c3c2)nc1 [Example 9, 1-({1-(4-Bromobenzyl)-6-[(5-methylpyridin-2-yl)methoxy]-1H-benzimidazol-2-yl}methyl)cyclopentanecarboxylic acid as the TFA salt]
200	–	Cn1cc(Cl)c(COc2ccc3nc([C@@H]4CCCC[C@@H]4C(=O)O)n(Cc4ccc(Br)cc4)c3c2)n1 (racemic) [Example 81, racemic cis-2-{1-(4-Bromobenzyl)-6-[(4-chloro-1-methyl-1H-pyrazol-3-yl)methoxy]-1H-benzimidazol-2-yl}cyclohexanecarboxylic acid]
590	–	Cc1ccc(COc2cc(F)c3nc(C4CCCC[C@H]4C(=O)O)n(Cc4ccc(OC(F)(F)F)cc4)c3c2)nc1 (mixture of isomers) [Example 66, racemic cis-2-{4-Fluoro-6-[(5-methylpyridin-2-yl)methoxy]-1-[4-(trifluoromethoxy)benzyl]-1H-benzimidazol-2-yl}cyclohexanecarboxylic acid as the TFA salt]
5710	–	Cc1ccc(COc2cc(Cl)c3nc([C@@H]4[C@H](C(=O)O)C4(C)C)n(Cc4ccc(Br)cc4)c3c2)nc1 (racemic) [Example 76, racemic cis-3-{1-(4-Bromobenzyl)-4-chloro-6-[(5-methylpyridin-2-yl)methoxy]-1H-benzimidazol-2-yl}-2,2-dimethylcyclopropanecarboxylic acid]
440	–	Cc1ccc(COc2cc(Cl)c3nc(C4CCCC[C@H]4C(=O)O)n(Cc4ccc(Br)cc4)c3c2)nc1 (mixture of isomers) [Example 75, racemic cis-2-{1-(4-Bromobenzyl)-4-chloro-6-[(5-methylpyridin-2-yl)methoxy]-1H-benzimidazol-2-yl}cyclohexanecarboxylic acid]
110	–	Cc1ccc(COc2ccc3nc([C@H]4CCCC[C@H]4C(=O)O)n(Cc4c(F)cc(Br)cc4F)c3c2)nc1 (racemic) [Example 126, racemic cis-2-{1-(4-Bromo-2,6-difluorobenzyl)-6-[(5-methylpyridin-2-yl)methoxy]-1H-benzimidazol-2-yl}cyclohexanecarboxylic acid]
